Key:
[1] = molecular target: T1, β-catenin (Homo sapiens, UniProt P35222); assay: SRP test (Biacore T200), binding to ligand β-catenin; conditions: Biacore T200, CM5 chip with β-catenin, HEPES pH 7.4, 0.1% DMSO, 25 °C
T1 sequence (P35222 1-781): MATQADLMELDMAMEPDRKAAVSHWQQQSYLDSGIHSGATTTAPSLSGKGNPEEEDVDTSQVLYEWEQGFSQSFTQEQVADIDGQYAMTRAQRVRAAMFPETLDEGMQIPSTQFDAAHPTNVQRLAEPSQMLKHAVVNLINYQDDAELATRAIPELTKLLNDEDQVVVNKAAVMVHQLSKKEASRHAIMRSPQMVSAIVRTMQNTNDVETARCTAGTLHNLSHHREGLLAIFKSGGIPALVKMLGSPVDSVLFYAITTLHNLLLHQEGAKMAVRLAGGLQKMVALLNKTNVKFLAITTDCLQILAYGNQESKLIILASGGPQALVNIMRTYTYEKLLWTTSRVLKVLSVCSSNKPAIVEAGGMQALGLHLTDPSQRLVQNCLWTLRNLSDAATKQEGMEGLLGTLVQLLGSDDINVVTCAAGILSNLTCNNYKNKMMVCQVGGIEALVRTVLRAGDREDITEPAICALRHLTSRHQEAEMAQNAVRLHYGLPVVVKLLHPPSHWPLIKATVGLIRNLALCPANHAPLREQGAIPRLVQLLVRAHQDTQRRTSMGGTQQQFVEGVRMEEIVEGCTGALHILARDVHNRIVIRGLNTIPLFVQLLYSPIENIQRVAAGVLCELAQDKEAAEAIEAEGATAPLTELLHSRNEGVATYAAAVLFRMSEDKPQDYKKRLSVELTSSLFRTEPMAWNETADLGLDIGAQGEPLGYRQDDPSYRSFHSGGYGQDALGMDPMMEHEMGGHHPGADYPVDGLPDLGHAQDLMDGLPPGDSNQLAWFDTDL
Method: • 1. Experimental settings • 1. The analyte is in powder form. • 2. The temperature is 25 °C • 3. The analysis equipment adopts Biacore T200 instrument. • 2. Sample dilution • 1. Ligand β-catenin diluted with HEPES (pH 7.4), 0.5 mg/mL • 2. The analyte was dissolved in DMSO and diluted with 0.1% DMSO HEPES (pH 7.4). • 3. Experimental process • 1. Operate and start according to the standard of Biacore T200 instrument. • 2. Prepare buffer HEPES (pH 7.4) and 500 ml of deionized water for washing syringes (filtered by […] membrane). • 3. Start installing the chip and install the Cm5 chip according to the standard process. • 4. Prepare to start the formal experiment, the buffer will flush the flow path system inside the entire system at a high flow rate. • 5. Choose the appropriate program according to the sample size. • 6. Start capturing the chip and prepare a sufficient volume of ligands β-catenin, EDC/NHS, and blocking solution. The conjugation procedure was started with a conjugation time of 7 min, a flow rate of […], and a final ligand conjugation of approximately 16000RU. • 7. After the conjugation is completed, the sample detection is started, and the analyte binding time is set to 120 s. • Flow rate of 30 μL/min; The dissociation time was 200 s and the flow rate was 30 μL/min. Regeneration time 30 s, • The flow rate is 30 μL/min. • 8. […]

[2] = test system: SW480 cells; assay: CCK8 assay, SW480 cells; type: cell-based; conditions: CCK-8, SW480 cells, 24 hours incubation at 37 °C, DMEM (2% FBS), OD450-OD600
Method: • 1. SW480 Cell plate • Cells digested, counted, and laid a 96-well plate (flat-bottomed transparent) with 10,000 cells/100 ul DMEM (10% FBS) per well; • 2. Observe the cell status on the next day, and start adding medicine after the cells are intact; • 3. Dilute the compound with DMEM (2% FBS) and dilute it in a gradient at concentrations of 20 μM, 10 μM, 5 μM, 2.5 μM, 1.25 μM, 0.625 μM, 0.3125 μM, 0.15625 μM, 0 μM (equal volume DMSO); • 4. Add 100 μl of the above compounds of different concentrations to each well, and make 2 compound wells for each concentration gradient; Leave 3 blank wells (DMEM 2% FBS culture medium only, no cells); • 5. Incubate at 37 °C for 24 hours; • 6. […] Measure absorbance at 450 nm and absorbance at 600 nm (exclude interference from the reagent base color and the absorbance value of the plate itself); • 9. The final absorbance value is OD450 nm-OD600 nm, and the rejection rate is calculated.
Suppression Rate=[(Ac−As)/(Ac−Ab)]×100% • As: absorbance of the experimental wells (medium containing cells, CCK-8, drug to be tested); • Ac: absorbance of the control wells (medium containing cells, CCK-8, no drug to be tested); • Ab: Absorbance of blank wells (medium without cells and drug to be tested, CCK-8).

Kd [1] [µM]	SMILES	other results
284	CC(C)c1ccc(-c2cccc(S(=O)(=O)N3CCCC(c4cccc(OC(C)(C)C(=O)NCC(=O)N5CCC[C@H]5CN)c4)C3)c2)cc1 (stereo partly shown) [Compound 115-010]	
760	CC(C)c1ccc(-c2cccc(S(=O)(=O)N3CCCC(c4cccc(OC(C)(C)C(=O)NCC(=O)N5CC[C@@H](CN)C5)c4)C3)c2)cc1 (stereo partly shown) [Compound 115-012]	
	CC(C)c1ccc(-c2cccc(S(=O)(=O)N3CCCC(c4cccc(OC(C)(C)C(=O)NCC(=O)N5CCC[C@H]5CCN)c4)C3)c2)cc1 (stereo partly drawn) [Compound 115-014, N-(2-((S)-2-(2-aminoethyl)pyrrolidin-1-yl)-2-oxyethyl)-2-(3-(1-((4′-isopropyl-[1,1′-Biphenyl]-3-yl)sulfonylpiperidine-3-yl)phenoxy)-2-methylpropionamide)]	IC50 ([2]; Homo sapiens, read-out: SW^10 IC50): 52.9 µM
	CC(C)(Oc1cccc(C2CCCN(C(=O)NCc3ccc(-c4cn[nH]c4)cc3)C2)c1)C(=O)NCC(=O)N1CCCC1CN (stereo not shown) [Compound 115-020]	SW^10 IC50 [2]: Inactive
